Several values for one entry are separate records, joined by “and”; a condition that tells them apart may be missing. Identical values can stand only once.
Key:
Experiment in all cases: Enzyme Activity Assay
Conditions in all cases: pH 7.5; 25 °C
[1] = molecular target: T1, 5'-methylthioadenosine/S-adenosylhomocysteine nucleosidase (Staphylococcus aureus (strain COL), UniProt Q5HFG2)
T1 sequence (Q5HFG2 whole entry): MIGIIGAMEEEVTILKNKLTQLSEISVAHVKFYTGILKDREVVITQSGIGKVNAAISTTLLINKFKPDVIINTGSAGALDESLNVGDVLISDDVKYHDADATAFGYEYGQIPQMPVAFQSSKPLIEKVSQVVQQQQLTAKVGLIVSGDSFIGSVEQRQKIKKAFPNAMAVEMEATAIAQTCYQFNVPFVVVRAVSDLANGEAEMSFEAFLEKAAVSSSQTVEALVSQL
From the text: (§1) Enzyme activity assay using various bacterial species of 5'-Methylthioadenosine nucleosidases (MTANs) excepted for MTAP, for human MTAP.

[2] = molecular target: T2, Aminodeoxyfutalosine nucleosidase (Helicobacter pylori (strain ATCC 700392 / 26695), UniProt O24915)
T2 sequence (O24915 whole entry): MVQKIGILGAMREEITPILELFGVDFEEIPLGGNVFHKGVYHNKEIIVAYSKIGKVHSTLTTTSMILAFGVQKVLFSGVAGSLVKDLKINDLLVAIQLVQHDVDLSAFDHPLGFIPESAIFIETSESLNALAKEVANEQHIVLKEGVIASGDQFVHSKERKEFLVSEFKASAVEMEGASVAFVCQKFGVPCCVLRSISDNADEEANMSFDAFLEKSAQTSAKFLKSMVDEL
From the text: as §1

[3] = molecular target: T3, S-methyl-5'-thioadenosine phosphorylase (Homo sapiens, UniProt Q13126)
T3 sequence (Q13126 whole entry): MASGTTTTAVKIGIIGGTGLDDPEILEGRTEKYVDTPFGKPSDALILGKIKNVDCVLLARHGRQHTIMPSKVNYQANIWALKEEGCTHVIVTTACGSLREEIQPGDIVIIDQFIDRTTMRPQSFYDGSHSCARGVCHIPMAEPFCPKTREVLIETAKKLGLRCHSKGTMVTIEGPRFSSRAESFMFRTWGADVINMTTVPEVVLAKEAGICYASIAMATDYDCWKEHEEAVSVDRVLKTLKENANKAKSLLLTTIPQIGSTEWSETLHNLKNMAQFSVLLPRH
From the text: as §1

[4] = molecular target: 5'-methylthioadenosine/S-adenosylhomocysteine nucleosidase (Klebsiella pneumoniae (strain 342), UniProt B5Y1L0)
From the text: as §1

[5] = molecular target: T4, Adenosylhomocysteine nucleosidase (Streptococcus pneumoniae (strain ATCC BAA-255 / R6), UniProt Q8DQ16)
T4 sequence (Q8DQ16 whole entry): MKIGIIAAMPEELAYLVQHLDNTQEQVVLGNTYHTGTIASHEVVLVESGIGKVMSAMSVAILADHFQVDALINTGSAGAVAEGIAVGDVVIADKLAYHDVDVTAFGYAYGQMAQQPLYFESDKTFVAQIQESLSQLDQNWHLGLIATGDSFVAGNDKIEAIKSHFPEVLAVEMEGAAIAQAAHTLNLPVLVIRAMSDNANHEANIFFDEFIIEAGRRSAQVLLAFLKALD
From the text: as §1

[6] = molecular target: 5'-methylthioadenosine/S-adenosylhomocysteine nucleosidase (Escherichia coli (strain K12), UniProt P0AF12)
From the text: as §1

[7] = molecular target: T5, 5'-methylthioadenosine/S-adenosylhomocysteine nucleosidase (Neisseria meningitidis (strain alpha14), UniProt C6S634)
T5 sequence (C6S634 whole entry): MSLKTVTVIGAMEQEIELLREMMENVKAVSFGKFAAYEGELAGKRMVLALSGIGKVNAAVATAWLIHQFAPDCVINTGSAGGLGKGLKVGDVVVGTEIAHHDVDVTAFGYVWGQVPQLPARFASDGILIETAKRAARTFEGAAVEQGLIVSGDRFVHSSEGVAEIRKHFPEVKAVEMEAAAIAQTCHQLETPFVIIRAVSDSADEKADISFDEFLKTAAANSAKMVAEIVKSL
From the text: as §1

5'-methylthioadenosine/S-adenosylhomocysteine nucleosidase (Klebsiella pneumoniae (strain 342), UniProt B5Y1L0), sequence (B5Y1L0 whole entry): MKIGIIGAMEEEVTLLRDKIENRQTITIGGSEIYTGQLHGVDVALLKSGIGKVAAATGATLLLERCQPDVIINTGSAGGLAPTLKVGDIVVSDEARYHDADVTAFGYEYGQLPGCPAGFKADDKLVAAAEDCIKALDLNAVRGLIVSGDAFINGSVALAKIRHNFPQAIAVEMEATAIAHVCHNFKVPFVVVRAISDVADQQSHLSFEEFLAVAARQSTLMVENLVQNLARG
5'-methylthioadenosine/S-adenosylhomocysteine nucleosidase (Escherichia coli (strain K12), UniProt P0AF12), sequence (P0AF12 whole entry): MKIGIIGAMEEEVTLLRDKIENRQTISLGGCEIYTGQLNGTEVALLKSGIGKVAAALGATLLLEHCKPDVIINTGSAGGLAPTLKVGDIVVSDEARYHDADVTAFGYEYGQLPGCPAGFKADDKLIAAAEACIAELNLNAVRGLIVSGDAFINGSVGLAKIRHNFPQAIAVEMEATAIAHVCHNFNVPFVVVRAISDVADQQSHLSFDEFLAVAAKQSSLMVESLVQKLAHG

Row | Structure (SMILES) | Kd [1] | Kd [2] | Kd [3] | Kd [4] | Kd [5] | Kd [6] | Kd [7]
1 | CCSCC1NC(c2c[nH]c3c(N)ncnc23)C(O)C1O (stereo unspecified) | 12 nM | 3.4 nM | 0.266 nM | 13 nM | 40 nM | 0.012 nM | 0.12 nM
2 | Nc1ncnc2c(C3NC(CSCc4ccccc4)C(O)C3O)c[nH]c12 (stereo unspecified) | 12 nM | 200 nM | 26 nM | 13 nM | 210 nM | 0.027 nM | 0.17 nM
3 | Nc1ncnc2c(C3NC(CSc4ccc(Cl)cc4)C(O)C3O)c[nH]c12 (stereo unspecified) | 53 nM | 40 nM | 0.166 nM | 4.1 nM | 190 nM | 0.002 nM | 0.063 nM
4 | Nc1ncnc2c(CN3CC(O)C(CSCc4ccccc4)C3)c[nH]c12 (stereo unspecified) | 0.841 nM | 200 nM | 0.7 nM | 1.9 nM | 2.4 nM | – | 0.024 nM
5 | CSCC1NC(c2c[nH]c3c(N)ncnc23)C(O)C1O (stereo unspecified) [2-(4-Amino-5H-pyrrolo[3,2-d]pyrimidin-7-yl)-3,4-dihydroxy-5-methylsulfanylmethyl-pyrrolidinium] | 77 nM | 1.2 nM | 1 nM | 45 nM | 1000 nM | 0.077 nM | 0.36 nM
6 | CCSC[C@H]1CN(Cc2c[nH]c3c(N)ncnc23)C[C@@H]1O [DADMe-ImmA-Et] | 1.3 nM | 0.515 nM | – | 2.2 nM | 10 nM | – | 0.046 nM
7 | CSC[C@H]1CN(Cc2c[nH]c3c(N)ncnc23)C[C@@H]1O [DADMe-ImmA-Me] | 1.4 nM | 0.571 nM | 0.086 nM and 0.034 nM | 0.784 nM | 24 nM | – | 0.14 nM
8 | Nc1ncnc2c(CN3CC(O)C(CSc4ccc(Cl)cc4)C3)c[nH]c12 (stereo unspecified) [DADMe-ImmA-p-ClPh] | 8 nM | 0.57 nM | 0.01 nM | 0.5 nM | 0.36 nM | – | 0.021 nM

From BindingDB's records for doi:10.1021/cb700166z (Albert Einstein College of Medicine, 2007)
